# Literature values, collected in US7632832B2, “CGRP receptor antagonists” (Merck & Co., Inc., priority 2005, dated 2009).
# System: CGRP
# Details: marmoset, electrical stimulation of the trigeminal ganglion (Doods et al. 2000)
smiles,measurement,value
NCCCC[C@H](NC(=O)[C@@H](Cc1cc(Br)c(O)c(Br)c1)NC(=O)N1CCC(N2Cc3ccccc3NC2=O)CC1)C(=O)N1CCN(c2ccncc2)CC1 [BIBN4096BS],effect on increase in facial blood flow,blocked
